Target: GST-tagged truncated human mutant G2019S LRRK2 (Homo sapiens, UniProt Q5S007, G2019S)
Test: LRRK2 G2019S Km ATP LanthaScreen assay
Type: biochemical
Details: 134 μM ATP (Km ATP), LRRKtide substrate, mean IC50 values; read-out: LRRK2 pIC50 (converted)
Summary of the method: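 LanthaScreen TR-FRET read with fluorescein-LRRKtide and 134 μM ATP (Km) in Tris pH 8.5/10 mM MgCl2 buffer. The enzyme was preincubated 15 min with compound at room temperature, and the reaction ran 90 min at ambient temperature. Stopped with EDTA plus Tb anti-phospho-LRRKtide antibody; the 520/495 nm ratio gave a 4-parameter logistic IC50, mean of several runs.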

Row | Structure (SMILES) | IC50 [nM]
1 | OC1COCC1N1CCN(c2cc3nc(Nc4cnn(C56CC(F)(C5)C6)c4Cl)ncc3cc2Cl)CC1 (single isomer, unassigned) [Ex-3.58, (3R,4R) or (3S,4S) 4-(4-(6-chloro-2-((5-chloro-1-(3-fluorobicyclo[1.1.1]pentan-1-y])-1H-pyrazol-4-yl)amino)quinazolin-7-yl)piperazin-1-yl) tetrahydrofuran-3-ol] | 0.44
2 | Cc1nscc1Nc1ncc2cc(Cl)c(N3CCN(C4(C)COC4)CC3)cc2n1 [Ex-4.67, 6-chloro-7-[4-(3-methyloxetan-3-yl)piperazin-1-yl]-N-(3-methyl-1,2-thiazol-4-yl)quinazolin-2-amine] | 23.8
3 | CN(C)c1cc2nc(Nc3cnn(C4CC4(F)F)c3Cl)ncc2cc1Cl (single isomer, unassigned) [Ex-3.42, (R) or (S) 6-chloro-N~2~-[5-chloro-1-(2,2-difluorocyclopropyl)-1H-pyrazol-4-yl]-N~7~,N~7~-dimethylquinazoline-2,7-diamine] | 7.37
4 | C[C@H]1COC(=O)N1c1ccc2cnc(Nc3cnn4c3CCCC4)nc2c1 [Ex-8.13, (4S)-4-methyl-3-{2-[(4,5,6,7-tetrahydropyrazolo[1,5-a]pyridin-3-yl)amino]quinazolin-7-yl}-1,3-oxazolidin-2-one] | 0.625
5 | O[C@@H]1COC[C@@H]1N1CCN(c2cc3nc(Nc4cnn(C56CC(C5)C6)c4Cl)ncc3cc2Cl)CC1 (single isomer, unassigned) [Ex-13.2, (3S,4S) or (3R,4R)-4-(4-(2-((1-(bicyclo[1.1.1]pentan-1-yl)-5-chloro-1H-pyrazol-4-yl)amino)-6-chloroquinazolin-7-yl)piperazin-1-yl)tetrahydrofuran-3-ol] | 3.81
6 | COC1CC(Cn2ncc(Nc3ncc4cc(Cl)c(N5CCN(C6(C)COC6)CC5)cc4n3)c2Cl)C1 (centres unmarked) [Ex-4.69, 6-chloro-N-{5-chloro-1-[(3-methoxycyclobutyl)methyl]-1H-pyrazol-4-yl}-7-[4-(3-methyloxetan-3-yl)piperazin-1-yl]quinazolin-2-amine] | 3.23
7 | CC1CCC12CN(c1cc3nc(Nc4cnn(C5(C)CC5)c4Cl)ncc3cc1Cl)C2 (single isomer, unassigned) [Ex-4.25, (R) or (S) 6-chloro-N-[5-chloro-1-(1-methylcyclopropyl)-1H-pyrazol-4-yl]-7-(5-methyl-2-azaspiro[3.3]heptan-2-yl)quinazolin-2-amine] | 570
8 | Cc1c(Nc2ncc3ccc(N4C(=O)OCC4C4CC4)cc3n2)cnn1C1CCOCC1 (single isomer, unassigned) [Ex-7.14, (R) or (S) 4-cyclopropyl-3-(2-{[5-methyl-1-(oxan-4-yl)-1H-pyrazol-4-yl]amino}quinazolin-7-yl)-1,3-oxazolidin-2-one] | 0.749
9 | COCC12CC(n3cc(Nc4ncc5cc(Cl)c(N6C[C@H]7CC[C@@H](C6)[C@@]7(C)O)cc5n4)cn3)(C1)C2 [Ex-3.31, (8-syn)-3-[6-chloro-2-({1-[3-(methoxymethyl)bicyclo[1.1.1]pentan-1-yl]-1H-pyrazol-4-yl}amino)quinazolin-7-yl]-8-methyl-3-azabicyclo[3.2.1]octan-8-ol] | 2.08
10 | CC1(N2CCN(c3cc4nc(Nc5cnn(C6(C)CC6)c5Cl)ncc4cc3Cl)CC2)CCOC1 (centres unmarked) [Ex-12.4] | 3.04
11 | Clc1cc2cnc(Nc3cnn(C4CC4)c3Cl)nc2cc1N1CCC(N2CCCC2)CC1 [Ex-1.44, 6-chloro-N-(5-chloro-1-cyclopropyl-1H-pyrazol-4-yl)-7-[4-(pyrrolidin-1-yl)piperidin-1-yl]quinazolin-2-amine] | 22.3
12 | OC[C@@H]1[C@H]2CN(c3cc4nc(Nc5cnn(CC(F)F)c5Cl)ncc4cc3Cl)C[C@@H]12 [Ex-1.19, [(1R,5S,6R)-3-(6-chloro-2-{[5-chloro-1-(2,2-difluoroethyl)-1H-pyrazol-4-yl]amino}quinazolin-7-yl)-3-azabicyclo[3.1.0]hexan-6-yl]methanol] | 4.87
13 | CCn1ncc(Nc2ncc3cc(Cl)c(N4CCN(C5(C)COC5)CC4)cc3n2)c1C [Ex-4.13, 6-chloro-N-(1-ethyl-5-methyl-1H-pyrazol-4-yl)-7-[4-(3-methyloxetan-3-yl)piperazin-1-yl]quinazolin-2-amine] | 6.83
14 | Cc1c(Nc2ncc3ccc(N4[C@H](C)CC[C@H]4C)cc3n2)cnn1CCF [Ex-1.12, (2R,5S or 2,5R)-7-[2,5-dimethylpyrrolidin-1-yl]-N-[1-(2-fluoroethyl)-5-methyl-1H-pyrazol-4-yl]quinazolin-2-amine] | 20.2
15 | Cc1c(Nc2ncc3cc(Cl)c(N4CCN(C5(C)COCC5O)CC4)cc3n2)cnn1C1CC1(F)F (single isomer, unassigned) [Ex-6.42, (3S,4S) or (3R,4R) 4-[4-(6-chloro-2-{[1-(2,2-(R) or (S)difluorocyclopropyl)-5-methyl-1H-pyrazol-4-yl]amino}quinazolin-7-yl)piperazin-1-yl]-4-methyloxolan-3-ol] | 21.4
16 | COCC12CC(n3cc(Nc4ncc5cc(Cl)c(N6CCC7(CCOC7)CC6)cc5n4)cn3)(C1)C2 [Ex-3.33, 6-chloro-N-{1-[3-(methoxymethyl)bicyclo[1.1.1]pentan-1-yl]-1H-pyrazol-4-yl}-7-(2-oxa-8-azaspiro [4.5]decan-8-yl)quinazolin-2-amine] | 1.15
17 | Cc1c(Nc2ncc3cc(Cl)c(N4CCN(C5COCC5O)CC4)cc3n2)cnn1C(C)(C)C#N (single isomer, unassigned) [Ex-6.23, (3S,4S) or (3R,4R) 2-[4-({6-chloro-7-[4-(4-hydroxyoxolan-3-yl)piperazin-1-yl]quinazolin-2-yl}amino)-5-methyl-1H-pyrazol-1-yl]-2-methylpropanenitrile] | 13.2
18 | CC1(N2CCN(c3cc4nc(Nc5cnn(CC6CCC6)c5Cl)ncc4cc3Cl)CC2)COC1 [Ex-4.54, 6-chloro-N-[5-chloro-1-(cyclobutylmethyl)-1H-pyrazol-4-yl]-7-[4-(3-methyloxetan-3-yl)piperazin-1-yl]quinazolin-2-amine] | 2.87
19 | CCn1ncc(Nc2ncc3ccc(N4CCC4C)cc3n2)c1C (single isomer, unassigned) [Ex-1.10, (S) or (R) N-(1-ethyl-5-methyl-1H-pyrazol-4-yl)-7-(2-methylazetidin-1-yl)quinazolin-2-amine] | 13.3
20 | Cn1ncc(Nc2ncc3ccc(N4C(=O)C5CCC4C5)cc3n2)c1C(F)(F)F (single isomer, unassigned) [Ex-4.5, 2-(2-{[1-methyl-5-(trifluoromethyl)-1H-pyrazol-4-yl]amino}quinazolin-7-yl)-2-azabicyclo[2.2.1]heptan-3-one] | 7.26
21 | CC(C)(O)Cn1cc(Nc2ncc3cc(Cl)c(N4CCC(C)(O)CC4)cc3n2)cn1 [Ex-3.12, 1-(6-chloro-2-{[1-(2-hydroxy-2-methylpropyl)-1H-pyrazol-4-yl]amino}quinazolin-7-yl)-4-methyl-piperidin-4-ol] | 0.221
22 | Cc1c(Nc2ncc3cc(Cl)c(N4CCC(O)CC4)cc3n2)cnn1C1CC1 [Ex-3.14, 1-{6-chloro-2-[(1-cyclopropyl-5-methyl-1H-pyrazol-4-yl)amino]quinazolin-7-yl}piperidin-4-ol] | 0.106
23 | Cc1c(Nc2ncc3cc(Cl)c(N4CCC(C)(O)C(C)C4)cc3n2)cnn1C1CC1 (single isomer, unassigned) [Ex-3.50, (3R,4R) or (3S,4S) or (3R,4S) or (3S,4R) 1-{6-chloro-2-[(1-cyclopropyl-5-methyl-1H-pyrazol-4-yl)amino]quinazolin-7-yl}-3,4-dimethylpiperidin-4-ol] | 0.821
